According to ChEMBL document CHEMBL4359829, “Straightforward synthesis and biological evaluation as topoisomerase I inhibitors and antiproliferative agents of hybrid Chromeno[4,3-b][1,5]Naphthyridines and Chromeno[4,3-b][1,5]Naphthyridin-6-ones” (Eur J Med Chem, 2019):

Columns and labels:
[1] = molecular target: T1, DNA topoisomerase 1 (Homo sapiens) (UniProt P11387); assay: Inhibition of recombinant human Top1 expressed in Saccharomyces cerevisiae null strain RS190 assessed as decrease in relaxation of supercoiled plasmid DNA at 100 uM using supercoiled plasmid DNA as substrate incubated for 15 sec by red staining based DNA relaxation assay relative to camptothecin
T1 sequence (whole entry): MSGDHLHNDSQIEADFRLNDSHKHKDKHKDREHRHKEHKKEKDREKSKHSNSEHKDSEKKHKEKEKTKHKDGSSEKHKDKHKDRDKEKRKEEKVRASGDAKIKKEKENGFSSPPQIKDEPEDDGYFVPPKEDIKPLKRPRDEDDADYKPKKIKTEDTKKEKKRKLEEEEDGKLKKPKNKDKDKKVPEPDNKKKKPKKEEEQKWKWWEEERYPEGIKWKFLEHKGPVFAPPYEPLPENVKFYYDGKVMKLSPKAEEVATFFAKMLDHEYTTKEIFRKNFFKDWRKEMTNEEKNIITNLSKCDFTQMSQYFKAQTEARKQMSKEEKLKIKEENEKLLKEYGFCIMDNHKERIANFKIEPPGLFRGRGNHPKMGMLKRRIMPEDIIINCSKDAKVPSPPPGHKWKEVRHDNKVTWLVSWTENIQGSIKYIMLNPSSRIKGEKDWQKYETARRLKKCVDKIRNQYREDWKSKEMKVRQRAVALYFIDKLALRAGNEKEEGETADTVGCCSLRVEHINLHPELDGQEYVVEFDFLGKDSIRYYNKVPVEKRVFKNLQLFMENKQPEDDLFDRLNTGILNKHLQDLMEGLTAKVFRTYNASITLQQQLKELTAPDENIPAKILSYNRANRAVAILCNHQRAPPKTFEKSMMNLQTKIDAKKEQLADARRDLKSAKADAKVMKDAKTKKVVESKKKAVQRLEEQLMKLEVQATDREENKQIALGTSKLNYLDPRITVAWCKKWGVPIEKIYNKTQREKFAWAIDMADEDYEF

[2] = molecular target: T1, DNA topoisomerase 1 (Homo sapiens); assay: Inhibition of recombinant human Top1 expressed in Saccharomyces cerevisiae null strain RS190 assessed as decrease in relaxation of supercoiled plasmid DNA at 100 uM using supercoiled plasmid DNA as substrate incubated for 3 min by red staining based DNA relaxation assay relative to camptothecin
[3] = molecular target: T1, DNA topoisomerase 1 (Homo sapiens); assay: Inhibition of recombinant human Top1 expressed in Saccharomyces cerevisiae null strain RS190 assessed as decrease in relaxation of supercoiled plasmid DNA at 100 uM using supercoiled plasmid DNA as substrate incubated for 1 min by red staining based DNA relaxation assay relative to camptothecin
[4] = test system: SK-OV-3; assay: Antiproliferative activity against human SKOV3 cells incubated for 48 hrs by CCK8 assay; assay type: functional, cell-based; conditions: SK-OV-3, 48 h
[5] = test system: MRC5; assay: Cytotoxicity against human MRC5 cells incubated for 48 hrs by CCK8 assay; assay type: cell-based; conditions: MRC5, 48 h
[6] = test system: A549; assay: Antiproliferative activity against human A549 cells incubated for 48 hrs by CCK8 assay; assay type: functional, cell-based; conditions: A549, 48 h

inhibition [1] [%] | inhibition [2] [%] | inhibition [3] [%] | IC50 [4] [µM] | IC50 [6] [µM] | Structure (SMILES) | IC50 [5] [µM]
84 | 6 | 6 | > 50 | > 50 | Fc1ccc(-c2c3c(nc4cccnc24)-c2ccccc2OC3)cc1F | > 50
4 | 4 | 4 | > 50 | > 50 | O=C1Oc2ccccc2[C@H]2Nc3ccc(Br)nc3[C@@H](c3ccccc3)[C@H]12 (relative stereo) | > 50
4 | 4 | 4 | > 50 | 29 | O=c1oc2ccccc2c2nc3ccc(Br)nc3c(-c3ccccc3)c12 | > 50
5 | 5 | 7 | > 50 | 25.4 | O=C1Oc2ccccc2[C@H]2Nc3cccnc3[C@@H](c3ccccc3)[C@H]12 (relative stereo) | > 50
2 | 2 | 2 | > 50 | > 50 | Fc1ccc2c(c1)-c1nc3cccnc3c(-c3ccccc3)c1CO2 | > 50
25 | 2 | 2 | > 50 | 9.03 | O=c1oc2ccccc2c2nc3cccnc3c(-c3ccccc3)c12 | > 50
30 | 2 | 14 | > 50 | > 50 | c1ccc(-c2c3c(nc4cccnc24)-c2ccccc2OC3)cc1 | > 50
4 | 4 | 4 | > 50 | > 50 | Brc1ccc2nc3c(c(-c4ccccc4)c2n1)COc1ccccc1-3 | > 50
70 | 19 | 69 | 12.7 | 7.25 | Cc1ccc2c(c1)[C@H]1Nc3cccnc3[C@@H](c3ccccc3)[C@@H]1CO2 (relative stereo) | > 50
86 | 15 | 16 | > 50 | 11.7 | COc1ccc2nc3c(c(-c4ccccc4)c2n1)COc1ccccc1-3 | > 50
5 | 1 | 4 | 1.75 | 1.03 | c1ccc([C@@H]2c3ncccc3N[C@@H]3c4ccccc4OC[C@@H]23)cc1 (relative stereo) | > 50
29 | 29 | 30 | > 50 | 17.9 | COc1ccc(-c2c3c(nc4cccnc24)-c2ccccc2OC3)cc1 | > 50
81 | 12 | 26 | > 50 | 5.43 | COc1ccc2c(n1)[C@@H](c1ccccc1)[C@@H]1COc3ccccc3[C@H]1N2 (relative stereo) | > 50
2 | 2 | 2 | > 50 | > 50 | Cc1ccc2c(c1)-c1nc3cccnc3c(-c3ccccc3)c1CO2 | > 50
4 | 4 | 4 | > 50 | > 50 | COc1ccc2c(n1)[C@@H](c1ccccc1)[C@@H]1C(=O)Oc3ccccc3[C@H]1N2 (relative stereo) | > 50
72 | 12 | 12 | > 50 | > 50 | COc1ccc2nc3c(c(-c4ccccc4)c2n1)c(=O)oc1ccccc13 | > 50
30 | 2 | 25 | > 50 | > 50 | O=C1Oc2ccc(F)cc2[C@H]2Nc3cccnc3[C@@H](c3ccccc3)[C@H]12 (relative stereo) | > 50
2 | 1 | 1 | > 50 | 11.3 | Fc1ccc2c(c1)[C@H]1Nc3cccnc3[C@@H](c3ccccc3)[C@@H]1CO2 (relative stereo) | > 50
26 | 2 | 2 | > 50 | > 50 | O=c1oc2ccc(F)cc2c2nc3cccnc3c(-c3ccccc3)c12 | > 50
